Where a name gives a salt, the structure may show the parent alone. Read-outs that look alike come from different tables or passages of the source.
Columns and labels:
[1] = test system: Escherichia coli expressing NDM-1 (CLB30005, CLB30016); assay type: cell-based; conditions: with imipenem 1 μg/ml, 95% inhibition of bacterial growth
Method in brief: (§1)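 Clinical strains were grown overnight at 35 °C on blood agar, adjusted to set OD600 in saline and diluted 1:100 into 1.1× CAMHB. Inhibitor was tested with and without imipenem at 1 μg/ml. After 22–24 h at 35 °C, absorbance was read to give synergistic concentration.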

[2] = test system: Serratia marcescens expressing IMP-1 (CL5741); assay type: cell-based; conditions: with imipenem 1 μg/ml, 95% inhibition of bacterial growth
Method in brief: as §1

[3] = test system: Pseudomonas aeruginosa PAO1 MB9798 (efflux+, IMP-1); conditions: ratio MITC95 PA 9798/MITC95 PA 9799; imipenem at 2 μg/mL
Method in brief: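 Isogenic PAO1 pair (efflux+ MB9798, efflux− MB9799, both IMP-1) tested by microbroth MIC with fixed imipenem and/or ceftazidime, usually at CLSI breakpoint, plus fixed class A/C inhibitor against AmpC. MBL inhibitor titrated; concentration restoring susceptibility recorded and fold difference between strains taken as efflux extent.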

| SMILES | Escherichia coli (NDM-1) MITC95 [1] [µM] | Serratia marcescens (IMP-1) MITC95 [2] [µM] | Escherichia coli (NDM-1) MITC95 ([1]; CLB30016) [µM] | Serratia marcescens (IMP-1) MITC95 ([2]; CL5741) [µM] | Efflux ratio [3] |
| --- | --- | --- | --- | --- | --- |
| C[N+]1(CCN)CC[C@H](NS(=O)(=O)c2ccc(-c3cccc4[nH]c(N)nc34)c(-c3nn[nH]n3)c2S(N)(=O)=O)C1 (stereo partly drawn) [Example 249, (3S)-3-{[4-(2-amino-1H-1,3-benzodiazol-4-yl)-2-sulfamoyl-3-(2H-1,2,3,4-tetrazol-5-yl)benzene]sulfonamido}-1-(2-aminoethyl)-1-methylpyrrolidin-1-ium methaneperoxoate] | 0.3906 | 1.563 | – | – | – |
| NCC(CN)NS(=O)(=O)c1ccc(-c2cccc3[nH]nnc23)c(-c2nn[nH]n2)c1S(N)(=O)=O [Example 403, 4-(1H-benzo [d][1,2,3]triazol-4-yl)-N^1-(1,3-diaminopropan-2-yl)-3-(2H-tetrazol-5-yl)benzene-1,2-disulfonamide] | 1.563 | 1.563 | – | – | – |
| NCCNS(=O)(=O)c1ccc(-c2cccc(NC(=O)[C@H](N)CO)c2)c(-c2nn[nH]n2)c1S(N)(=O)=O [Example 454, (R)-2-amino-N-(4′-(N-(2-aminoethyl)sulfamoyl)-3′-sulfamoyl-2′-(2H-tetrazol-5-yl)-[1,1′-biphenyl]-3-yl)-3-hydroxypropanamide] | 1.563 | 3.125 | – | – | – |
| NS(=O)(=O)c1c(S(=O)(=O)N[C@@H]2CCNC2)ccc(-c2cccc(Nc3nc(CO)cs3)c2)c1-c1nn[nH]n1 [Example 470, (R)-3′-((4-(hydroxymethyl)thiazol-2-yl)amino)-N4-(pyrrolidin-3-yl)-2-(2H-tetrazol-5-yl)-[1,1′-biphenyl]-3,4-disulfonamide] | 0.7813 | 1.563 | – | – | – |
| NCCN1CC[C@@H](NS(=O)(=O)c2ccc(-c3ccc(N)nc3)c(-c3nn[nH]n3)c2S(N)(=O)=O)C1 [Example 500, (R)—N1-(1-(2-aminoethyl)pyrrolidin-3-yl)-4-(6-aminopyridin-3-yl)-3-(2H-tetrazol-5-yl)benzene-1,2-disulfonamide] | – | – | 1.563 | 1.563 | – |
| NCc1nc2cc(-c3ccc(S(=O)(=O)NC[C@H](O)CN)c(S(N)(=O)=O)c3-c3nn[nH]n3)ccc2s1 [Example 463, (R)—N1-(3-amino-2-hydroxypropyl)-4-(2-(aminomethyl)benzo[d]thiazol-5-yl)-3-(2H-tetrazol-5-yl)benzene-1,2-disulfonamide] | 0.7813 | 0.7813 | – | – | – |
| C[C@H](N)Cc1nc2c(-c3ccc(S(N)(=O)=O)c(S(N)(=O)=O)c3-c3nn[nH]n3)cccc2[nH]1 [Example 442, (S)-4-(2-(2-aminopropyl)-1H-benzo[d]imidazol-4-yl)-3-(2H-tetrazol-5-yl)benzene-1,2-disulfonamide] | 1.563 | 1.563 | – | – | – |
| NCc1sc(N)nc1-c1cccc(-c2ccc(S(=O)(=O)N[C@@H]3CCNC3)c(S(N)(=O)=O)c2-c2nnn[nH]2)c1 [Example 432, (R)-3′-(2-amino-5-(aminomethyl)thiazol-4-yl)-N^4-(pyrrolidin-3-yl)-2-(1H-tetrazol-5-yl)-[1,1′-biphenyl]-3,4-disulfonamide] | 0.7813 | 0.7813 | – | – | – |
| C[N+](C)(C)CCCNS(=O)(=O)c1ccc(-c2cccc3sc(N)nc23)c(-c2nnn[nH]2)c1S(N)(=O)=O [Example 392, 3-({[4-(2-amino-1,3-benzothiazol-4-yl)-2-sulfamoyl-3-(1H-tetrazol-5-yl)phenyl]sulfonyl}amino)-N,N,N-trimethylpropan-1-amimum trifluoroacetate] | 3.125 | 3.125 | – | – | – |
| C[C@@H](CN)NS(=O)(=O)c1ccc(-c2ccnc(N)c2)c(-c2nn[nH]n2)c1S(N)(=O)=O [Example 398, (S)-N^1-(1-aminopropan-2-yl)-4-(2-aminopyridin-4-yl)-3-(2H-tetrazol-5-yl)benzene-1,2-disulfonamide] | 3.125 | 1.563 | – | – | – |
| NCC(=O)NC1CCC[C@@H](c2ccc(S(=O)(=O)N[C@@H]3CCNC3)c(S(N)(=O)=O)c2-c2nn[nH]n2)C1 (stereo partly drawn) [Example 270, 2-Amino-N-((3R)-3-(4-(N—((R)-pyrrolidin-3-yl)sulfamoyl)-3-sulfamoyl-2-(2H-tetrazol-5-yl)phenyl)cyclohexyl)acetamide] | 1.563 | – | – | – | 1.00 |
| C[C@H](CN)NS(=O)(=O)c1ccc(-c2cccc3[nH]c(CN)nc23)c(-c2nn[nH]n2)c1S(N)(=O)=O [Example 383, (R)-4-(2-(aminomethyl)-1H-benzo[d]imidazol-4-yl)-N1-(1-aminopropan-2-yl)-3-(2H-tetrazol-5-yl)benzene-1,2-disulfonamide] | 0.7813 | – | – | – | 1.00 |
| Nc1nc2c(-c3ccc(S(=O)(=O)NC4CCNCC4)c(S(N)(=O)=O)c3-c3nn[nH]n3)cccc2[nH]1 [Example 260, 4-(2-amino-1H-benzo[d]imidazol-4-yl)-N1-(piperidin-4-yl)-3-(1H-tetrazol-5-yl)benzene-1,2-disuffonamide] | 0.7813 | – | – | – | 1.00 |
| NS(=O)(=O)c1c(S(=O)(=O)N[C@@H]2CNC[C@@H]2O)ccc(-c2cccc3[nH]nnc23)c1-c1nn[nH]n1 [Example 412, 4-(1H-benzo[d][1,2,3]triazol-4-yl)-N^1-((3R,4S)-4-hydroxypyrrolidin-3-yl)-3-(2H-tetrazol-5-yl)benzene-1,2-disulfonamide] | 3.125 | 3.125 | – | – | – |
| CNc1nc2c(-c3ccc(S(=O)(=O)NCCN)c(S(N)(=O)=O)c3-c3nn[nH]n3)cccc2[nH]1 [Example 467, N1-(2-aminoethyl)-4-(2-(methylamino)-1H-benzo[d]imidazol-4-yl)-3-(2H-tetrazol-5-yl)benzene-1,2-disulfonamide] | 0.7813 | 0.7813 | – | – | – |
| Nc1ccc(-c2ccc(S(=O)(=O)NC3CNC3)c(S(N)(=O)=O)c2-c2nn[nH]n2)cn1 [Example 493, 4-(6-aminopyridin-3-yl)-N1-(azetidin-3-yl)-3-(2H-tetrazol-5-yl)benzene-1,2-disulfonamide] | 0.3906 | 0.3906 | – | – | – |
| Nc1nc2c(-c3ccc(S(=O)(=O)NC[C@@]4(N)CCNC4)c(S(N)(=O)=O)c3-c3nn[nH]n3)cccc2s1 [Example 367, (R)-4-(2-aminobenzo[d]thiazol-4-yl)-N1-((3-aminopyrrolidin-3-yl)methyl)-3-(2H-tetrazol-5-yl)benzene-1,2-disulfonamide] | 1.563 | – | – | – | 0.50 |
| NCc1nc2c(-c3ccc(S(=O)(=O)N[C@@H]4CCNC4)c(S(N)(=O)=O)c3-c3nn[nH]n3)cccc2[nH]1 [Example 283, (R)-4-(2-(aminomethyl)-1H-benzo[d]imidazol-4-yl)-N1-(pyrrolidin-3-yl)-3-(2H-tetrazol-5-yl)benzene-1,2-disulfonamide] | 0.7813 | – | – | – | 1.00 |
| NCCN1CC[C@H](NS(=O)(=O)c2ccc(-c3cccc4[nH]c(N)nc34)c(-c3nn[nH]n3)c2S(N)(=O)=O)C1 [Example 268, (S)-4-(2-amino-1H-benzo[d]imidazol-4-yl)-N1-(1-(2-aminoethyl)pyrrolidin-3-yl)-3-(2H-tetrazol-5-yl)benzene-1,2-disulfonamide] | 0.7813 | – | – | – | 1.00 |
| NCCNS(=O)(=O)c1ccc(-c2cccc3ncccc23)c(-c2nn[nH]n2)c1S(N)(=O)=O [Example 360, N1-(2-aminoethyl)-4-(quinolin-5-yl)-3-(2H-tetrazol-5-yl)benzene-1,2-disulfonamide] | 1.563 | 1.563 | – | – | – |
| Nc1cccc(-c2ccc(S(=O)(=O)N[C@@H]3CCNC3)c(S(N)(=O)=O)c2-c2nn[nH]n2)n1 [Example 277, (R)-4-(6-aminopyridin-2-yl)-N1-(pyrrolidin-3-yl)-3-(2H-tetrazol-5-yl)benzene-1,2-disulfonamide] | 0.7813 | – | – | – | 1.00 |
| C[C@@H](CCN)NS(=O)(=O)c1ccc(-c2cccc3[nH]c(N)nc23)c(-c2nn[nH]n2)c1S(N)(=O)=O [Example 267, (S)-4-(2-amino-1H-benzo[d]imidazol-4-yl)-N1-(4-aminobutan-2-yl)-3-(2H-tetrazol-5-yl)benzene-1,2-disulfonamide] | 0.7813 | – | – | – | 1.00 |
| Nc1nc2c(-c3ccc(S(=O)(=O)NC[C@H]4CNCCN4)c(S(N)(=O)=O)c3-c3nn[nH]n3)cccc2[nH]1 [Example 314, (R)-4-(2-amino-1H-benzo[d]imidazol-4-yl)-N1-(piperazin-2-ylmethyl)-3-(2H-tetrazol-5-yl)benzene-1,2-disulfonamide] | 0.7813 | – | – | – | 1.00 |
| NCCNS(=O)(=O)c1ccc(-c2cccc3[nH]c([C@@H](N)CO)nc23)c(-c2nn[nH]n2)c1S(N)(=O)=O [Example 331, (R)-4-(2-(1-amino-2-hydroxyethyl)-1H-benzo[d]imidazol-4-yl)-N1-(2-aminoethyl)-3-(2H-tetrazol-5-yl)benzene-1,2-disulfonamide] | 1.563 | – | – | – | 1.00 |

Reference: patent publication US10544130B2, “Metallo-beta-lactamase inhibitors” (priority 2015, dated 2020)
